Consider three compounds from article PMC10933920, “Synthesis and Anti-Inflammatory Activity of Ferulic Acid-Sesquiterpene Lactone Hybrids” (Molecules, 2024).

The term IC50 denotes the concentration at which inhibition is half-maximal. The term solubility denotes the dissolved amount per volume that the medium holds.

The subject of series [1] is primary lung fibroblasts derived from patients with IPF and non-diseased controls. On the set-up: method as in PMID 33730605. To be noted: unstimulated fibroblasts, 0–10 µM ACT001; cited from earlier work.
Another series deals with RAW264.7 cells. Nature of the series: CCK-8 cell viability (cytotoxicity) assay. The class given is cell-based, Mouse. The protocol:
CCK-8 Cell Proliferation was used to confirm the non-cytotoxic dose of those derivatives in RAW264.7 cells. However, IC50 values of those compounds show visible difference in vitro (Table 1). Considering the safety of compound 6 in RAW264.7 cells, a follow-up experiment was carried out at the concentration of 2 μM.
The toxicity of those compounds was determined by the CCK-8 assay. RAW264.7 cells were seeded in a 96-well plate at a density of 2 × 10^5/mL and a volume of 100 μL/well. After incubation for 12 h at 37 °C, the cells were then incubated with compounds at concentrations of 1.25, 2.5, 5, 10, 20, 40 and 80 μM for 24 h, followed by the addition of 10 μL CCK-8 solution to each well, and the plates were further incubated for 2 h at 37 °C. The absorbance at a wavelength of 450 nm was measured using a microplate reader (Bio-Rad Laboratories, Inc., Hercules, CA, USA).

For series [2], the system named is LPS-induced expression of IL-1β, IL-6 and iNOS in RAW264.7 cells. Nature of the series: qRT-PCR of pro-inflammatory cytokine gene expression after LPS stimulation. In kind it is cell-based, Mouse. The note with it: RAW264.7 cells pre-treated 2 h, LPS 1 μg/mL 6 h, RT-PCR, 2 μM. The source says: Inflammatory factors, including TNF-α, IL-1β, and IL-6, are involved in and accelerate inflammatory responses during inflammatory progression. In addition, iNOS (Nitric oxide synthase)-derived monocytes contribute to macrophage recruitment in the lung, and pulmonary-derived iNOS is detrimental during acute lung injury. Moreover, observations indicate that inhibiting iNOS can reduce inflammation in the early stages of the bleomycin model of acute lung injury. Therefore, the effective suppression of inflammation is considered an effective marker for the treatment of inflammation. To establish the efficacy of those compounds suppressing inflammatory procession, we tested pro-inflammatory cytokines that are released from the RAW264.7 cells upon LPS stimulation.
Total RNA was isolated using TRIzol reagent (Takara, Ōtsu-shi, Japan) and then transcribed into cDNA using a transcriptor cDNA synthesis kit (TransGen Biotech, Beijing, China) according to the manufacturer’s instructions. Quantitative real-time PCR was performed with TransStart® Green qPCR SuperMix (TransGen Biotech, China). The conditions for the real-time PCR reaction were as follows: 94 °C, 30 s; 94 °C, 5 s; 60 °C, 30 s; 40 cycles. The primers for this research are listed in Supplementary Material Table S1.
Figure 2 Anti-inflammation of 1–6 in RAW264.7 Cells. Expression of proinflammatory cytokines in RAW264.7 cells use RT-PCR. Cells (1 × 10^6 cells/well) were seeded into 6-well plates and then pro-treated with 1–6 for 2 h. Cells were then challenged with LPS (1 μg/mL) or medium alone for 6 h and Total RNA was extracted from cells with Trizol reagent. TNF-α: tumor necrosis factor-α; IL-1β:Interleukin-1β; L-6: Interleukin-6. Data were analyzed by One-Way ANOVA. *: p < 0.05; **: p < 0.01. ns: no significance.

Series [3] relates to TNF-α and IL-6 release from LPS-stimulated RAW264.7 cells. Nature of the series: ELISA of pro-inflammatory cytokine protein levels in culture supernatant. In kind it is cell-based, Mouse. The note with it: RAW264.7 cells pre-treated 6 h, LPS 24 h. On the technique in general: In an ELISA, binding on a coated surface is turned into a signal by an enzyme label.
For series [4], the system named is BLM-induced acute lung injury in C57BL/6J mice. Nature of the series: Bleomycin-induced acute lung injury model. The class given is in vivo. To be noted: compound 6 10 mg/kg i.p. daily for 14 days. As for the experimental part: To further confirm the anti-inflammation effect of compound 6 in vivo, we made the acute-lung-injury model in C57/6j mice using bleomycin. […] To further investigate the protective effect of 6 by BLM-induced ALI, the pathological changes in lung tissues were studied (Figure 5).
C57BL/6J mice (male) were purchased from Vital River Laboratories (Beijing, China). All procedures were conducted according to the Nankai University Guidelines on Animal Care, and the experimental protocol was approved by the Institutional Animal Protection Committee of the Nankai University (Tianjing, China, NO. 2022-SYDWLL-000342). Animals were sheltered under standard conditions with food and water provided ad libitum. Experiments were conducted on 8-week-old male mice, randomly divided into 4 groups: Control (Con), ALI (bleomycin), Dex (dexamethasone) and compound 6. For bleomycin-induced lung injury, mice were sedated, and a single dose of intratracheal bleomycin (4 mg/kg; Selleckchem, Houston, TX, USA) in sterile PBS. 6 was administered daily for 14 days via intraperitoneal injections (i.p) (100 μL/mouse of […] 6 in PBS). Dexamethasone (2 mg/kg) was administered orally. The mice were monitored and their weight was measured daily. After 14 days, the mice were killed with anesthetic overdose and exsanguinated by cutting the abdominal aorta before the collection of lungs.
Body weight variations were calculated from the measured weights at each time point (days 1–14), including before the sacrifice of the mice reaching the endpoints. To avoid a potential bias by studying the animals with the better outcomes, animals reaching endpoints were included in the calculation of the weight variation and survival rates.
Figure 4 Effect of compound 6 on body weight and survival after bleomycin-induced acute lung injury in mice. After bleomycin (4 mg/kg, 25 μL), mice were treated (i.p) daily with compound 6 (10 mg/kg, 100 μL) for 14 days. Body weight variations ((A), n = 12) and percentage (%) of mouse survival ((B), n = 5–12) were compared between the four groups. (Values are means ± SEM, ** p < 0.01). […]

A short description of series [5]: Release of prodrug into active drug in HEPES buffer. To be noted: HEPES buffer pH 7.4, 37 °C, HPLC; read-out: T1/2 (conversion of prodrug 6 into compound 3) (converted). The class given is physicochemical. The protocol:
The Michael addition reaction has emerged as an effective synthetic strategy to improve the water solubility and pharmaceutical efficacy of active drug compounds [34]. […] In addition, the use of Michael addition products can also serve to modulate the release rate of active drugs, thereby enabling better control over the pharmacological effects of such compounds. Thus, the experiment of converting the prodrug compound (6) into compound (3) was evaluated in a HEPES buffer solution with a pH of 7.4. Compound 6 rapidly releases compound 3 under these conditions. (Figure 6, T1/2 = 2 h).
A total of 10 mg of compound 6 was dissolved in 10 mL MeCN. A 0.5 mL volume of compound 6 solution was placed in 49.5 mL of HEPES at pH 7.4. The tubes were then incubated in a bath incubator at 37 °C. Samples were removed after 10 s, and the concentration of compound 6 and 3 was analyzed by HPLC.
Figure 6 The stability of compound 6 in pH7.4 HEPES buffer.

The nature of series [6]: Aqueous solubility measurement. In kind it is physicochemical. As for the experimental part:
PTL, MCL and compounds 1–6 (0.1, 1, 10 mg) were dissolved in deionized water (pH = 7.0) until the solution was clear. The assays were measured at least in duplicate.

Details of series [7]: method as in PMID 30208745. To be noted: cited from earlier work.

SMILES strings stand for the structures. Converted amounts (≈) assume the structure as drawn. “Also recorded” adds a separate entry of the source.

In the case of `CC1=C2CC[C@@](C)(O)[C@@H]2[C@H]2OC(=O)[C@@H](CN(C)C)[C@@H]2CC1` [ACT001], the IL-6 production entry in series [1] is recorded as “inhibited IL-6”.

In the series on RAW264.7 cells (Mus musculus, RAW264.7, 24 h, RAW264.7 cells, CCK-8, 24 h incubation, means of three independent experiments), `COc1cc(C=CC(=O)OCC2=CCCC3(C)OC3C3OC(=O)C(CN(C)C)C3CC2)ccc1O` [Compound 6, ((1aR,7aS,8R,10aS,10bS,E)-8-((dimethylamino)methyl)-1a-methyl-9-oxo-1a,2,3,6,7,7a,8,9,10a,10b-decahydrooxireno[2′,3′:9,10]cyclodeca[1,2-b]furan-5-yl)methyl (E)-3-(4-hydroxy-3-methoxyphenyl)acrylate 2-hydroxypropane-1,2,3-tricarboxylate] had an IC50 of 6.95 ± 1.09 µM. The “decline in cytotoxic effect compared to parent compound 3” value in the series on RAW264.7 cells (RAW264.7 cell line, versus compound 3) stood at 2 fold. In addition, the “gene expression of pro-inflammatory cytokines (IL-1β, IL-6, iNOS)” value in series [2] is listed as “comparable activities; also recorded: could significantly reduce inflammation of RAW264.7 cells induced by LPS”. In addition, the “protein levels / release of pro-inflammatory cytokines (TNF-α and)” value in series [3] is listed as “could also inhibit the release of pro-inflammatory cytokines in vitro”. Moreover, the survival rate entry in series [4] is given as “did not reverse the survival rate”. In series [4] (10 mg/kg), the “acute lung injury / lung pathology (H&E: inflammatory cell infiltration, edema, alveolar structure)” value was “reduced inflammatory cell infiltration and edema in lung tissue of mice, and improved alveolar structure; also recorded: ameliorated inflammatory cell infiltration and edema in lung tissue; also recorded: could significantly decrease the acute lung injury induced by bleomycin”; the body weight loss entry is “prevented the weight loss significantly”. The half-life at 10 µg/mL in series [5] was 2 h. Also, the “water solubility (in words)” value in series [6] (pH 7.0) is on record as “outstanding water solubility; also recorded: significantly improved water solubility; also recorded: good water solubility; also recorded: more soluble than the reference compound 3”. In series [6] (thermodynamic from solid, deionized water, pH = 7.0, at least in duplicate, read-out: Aqueous Solubility IC50), the solubility is 2500 µg/mL (≈ 5.15 mM).

Turning to `C/C1=C\CC[C@@]2(C)O[C@@H]2[C@H]2OC(=O)[C@H](CN(C)C)[C@@H]2CC1` [DMAPT], in series [7], the “solubility relative to parent compound parthenolide” value is “more than 1000 times”.
